Measured values from US12565488B2, “Inhibitors of influenza virus replication” (COCRYSTAL PHARMA, INC., priority 2018, dated 2026).
pEC50: −log10 of the molar value.

Tested on: Influenza type A (strain A/PR/8/34, ATCC VR-95)
Test: Influenza antiviral assay: inhibition of virus-induced cytopathic effects (CPE) in MDCK cells, XTT dye reduction
Type: cell-based
Conditions: Influenza A (H1N1) replication in MDCK cells, CPE reduction by XTT at 4 days post-infection; read-out: Influenza H1N1 affinity, EC50

Compound | pEC50
O=C(NCC1c2ccccc2COc2ccccc21)c1c(O)c(=O)ccn1CC1c2ccccc2COc2ccccc21 (centres unmarked) [Compound 50] | 5.00 to 6.00

Same assay, conditions: Influenza A virus, H1N1 / PR/8, MDCK, 96 h, Influenza A (H1N1) replication in MDCK cells, CPE reduction by XTT at 4 days post-infection; read-out: Influenza H1N1 affinity, EC50

Compound | pEC50
O=C(O)c1c(O)c(=O)ccn1NC1CCCOc2ccccc21 (centres unmarked) [Compound 1] | 4.00 to 5.00
O=C(O)c1c(O)c(=O)ccn1NC1c2ccccc2COc2ccccc21 (centres unmarked) [Compound 2, 1-((6,11-dihydrodibenzo[b,e]oxepin-11-yl)amino)-3-hydroxy-4-oxo-1,4-dihydropyridine-2-carboxylic acid] | 4.00 to 5.00
O=c1ccn(NC2c3ccccc3COc3ccccc32)cc1O (centres unmarked) [Compound 4] | < 4.00
CN(C)C(=O)c1c(O)c(=O)ccn1NC1c2ccccc2COc2ccccc21 (centres unmarked) [Compound 5] | < 4.00
CN(Cc1ccccc1)C(=O)c1c(O)c(=O)ccn1NC1c2ccccc2COc2ccccc21 (centres unmarked) [Compound 6] | 5.00 to 6.00
O=C(NCCOCCO)c1c(O)c(=O)ccn1NC1CCCNc2ccccc21 (centres unmarked) [Compound 8] | < 4.00
COC(=O)c1c(O)c(=O)ccn1NC1CCCN(Cc2ccc(OC)cc2)c2ccccc21 (centres unmarked) [Compound 9] | < 4.00
CC(C)NC(=O)c1c(O)c(=O)ccn1N(C)C1c2ccccc2COc2ccccc21 (centres unmarked) [Compound 10] | < 4.00
O=C(Nc1ccccc1)c1c(O)c(=O)ccn1NC1c2ccccc2COc2ccccc21 (centres unmarked) [Compound 11] | < 4.00
O=c1ccn(NC2CCOCc3ccccc32)cc1O (centres unmarked) [Compound 12] | < 4.00
O=C(Nc1cccc(C(F)(F)F)c1)c1c(O)c(=O)ccn1NC1c2ccccc2COc2ccccc21 (centres unmarked) [Compound 13, 1-((6,11-dihydrodibenzo[b,e]oxepin-11-yl)amino)-3-hydroxy-4-oxo-N-(3-(trifluoromethyl)phenyl)-1,4-dihydropyridine-2-carboxamide] | 5.00 to 6.00
O=C(NCCOCCO)c1c(O)c(=O)ccn1NC1CCCN(Cc2ccccc2)c2ccccc21 (centres unmarked) [Compound 17] | < 4.00
CN(C1c2ccccc2COc2ccccc21)n1ccc(=O)c(O)c1C(=O)NCc1ccccc1 (centres unmarked) [Compound 18] | < 4.00
O=C(Nc1cccc(O)c1)c1c(O)c(=O)ccn1NC1c2ccccc2COc2ccccc21 (centres unmarked) [Compound 19] | < 4.00
O=C(Nc1ccc(O)cc1)c1c(O)c(=O)ccn1NC1c2ccccc2COc2ccccc21 (centres unmarked) [Compound 20] | < 4.00
O=C(Nc1cccc2ccccc12)c1c(O)c(=O)ccn1NC1c2ccccc2COc2ccccc21 (centres unmarked) [Compound 21] | < 4.00
O=C(NCc1ccc2ccccc2c1)c1c(O)c(=O)ccn1NC1c2ccccc2COc2ccccc21 (centres unmarked) [Compound 22] | 5.00 to 6.00
O=C(NCc1ccc(-c2ccccc2)cc1)c1c(O)c(=O)ccn1NC1c2ccccc2COc2ccccc21 (centres unmarked) [Compound 23, N-(Biphenyl-4-ylmethyl)-1-(6,11-dihydrodibenzo[b,e]oxepin-11-ylamino)-3-hydroxy-4-oxo-1,4-dihydropyridine-2-carboxamide] | 5.00 to 6.00
O=C(NCc1cccc2ccccc12)c1c(O)c(=O)ccn1NC1c2ccccc2COc2ccccc21 (centres unmarked) [Compound 24] | < 4.00
CNC(=O)c1c(O)c(=O)ccn1N(C)C1c2ccccc2COc2ccccc21 (centres unmarked) [Compound 25] | < 4.00
COC(=O)c1c(O)c(=O)ccn1N(Cc1ccccc1)C1c2ccccc2COc2ccccc21 (centres unmarked) [Compound 26] | < 4.00
O=c1ccn(N(Cc2ccccc2)C2c3ccccc3COc3ccccc32)cc1O (centres unmarked) [Compound 27] | < 4.00
CN(C1c2ccccc2COc2ccccc21)n1ccc(=O)c(O)c1 (centres unmarked) [Compound 28] | < 4.00
O=C(NCc1cccc(O)c1)c1c(O)c(=O)ccn1NC1c2ccccc2COc2ccccc21 (centres unmarked) [Compound 29] | < 4.00
O=C(Nc1cccc(-c2ccccc2)c1)c1c(O)c(=O)ccn1NC1c2ccccc2COc2ccccc21 (centres unmarked) [Compound 30] | < 4.00

Compound | pEC50
O=C(NCc1ccc(C(F)(F)F)cc1)c1c(O)c(=O)ccn1NC1c2ccccc2COc2ccccc21 (centres unmarked) [Compound 31] | < 4.00
O=C(NCc1ccc(O)cc1)c1c(O)c(=O)ccn1NC1c2ccccc2COc2ccccc21 (centres unmarked) [Compound 32] | < 4.00
O=C(NCc1cccc(-c2ccccc2)c1)c1c(O)c(=O)ccn1NC1c2ccccc2COc2ccccc21 (centres unmarked) [Compound 33] | < 4.00
CN(C1c2ccccc2COc2ccccc21)n1ccc(=O)c(O)c1C(=O)Nc1ccccc1 (centres unmarked) [Compound 34] | < 4.00
O=C(Nc1ccc(C(F)(F)F)cc1)c1c(O)c(=O)ccn1NC1c2ccccc2COc2ccccc21 (centres unmarked) [Compound 35] | < 4.00
O=C(Nc1ccc(-c2ccccc2)cc1)c1c(O)c(=O)ccn1NC1c2ccccc2COc2ccccc21 (centres unmarked) [Compound 36] | < 4.00
O=C(NCc1cccc(C(F)(F)F)c1)c1c(O)c(=O)ccn1NC1c2ccccc2COc2ccccc21 (centres unmarked) [Compound 37] | < 4.00
CNC(=O)c1c(O)c(=O)ccn1CC(c1ccccc1)c1ccccc1 [Compound 38] | < 4.00
CN(C(c1ccccc1)c1ccccc1)n1ccc(=O)c(O)c1 [Compound 39] | < 4.00
O=C(O)c1c(O)c(=O)ccn1NC1c2ccccc2SCc2c1ccc(F)c2F (centres unmarked) [Compound 40, 1-((7,8-difluoro-6,11-dihydrodibenzo[b,e]thiepin-11-yl)amino)-3-hydroxy-4-oxo-1,4-dihydropyridine-2-carboxylic acid] | 5.00 to 6.00
CNC(=O)c1c(O)c(=O)ccn1NC1c2ccccc2SCc2c1ccc(F)c2F (centres unmarked) [Compound 41] | < 4.00
O=C(NCC(F)(F)F)c1c(O)c(=O)ccn1NC1c2ccccc2SCc2c1ccc(F)c2F (centres unmarked) [Compound 42, 1-((7,8-difluoro-6,11-dihydrodibenzo[b,e]thiepin-11-yl)amino)-3-hydroxy-4-oxo-N-(2,2,2-trifluoroethyl)-1,4-dihydropyridine-2-carboxamide] | 5.00 to 6.00
O=c1ccn(NC2c3ccccc3SCc3c2ccc(F)c3F)cc1O (centres unmarked) [Compound 43, 1-((7,8-difluoro-6,11-dihydrodibenzo[b,e]thiepin-11-yl)amino)-3-hydroxypyridin-4(1H)-one] | < 4.00
CNC(=O)c1c(O)c(=O)ccn1NC1CCN(Cc2ccccc2)c2ccccc21 (centres unmarked) [Compound 44] | < 4.00
CNC(=O)c1c(O)c(=O)ccn1NC1CCN(C)c2ccccc21 (centres unmarked) [Compound 45] | < 4.00
CNC(=O)c1c(O)c(=O)ccn1NC1CCCN(C)c2ccccc21 (centres unmarked) [Compound 46] | < 4.00
O=C(Nc1ccc2ccccc2c1)c1c(O)c(=O)ccn1NC1c2ccccc2COc2ccccc21 (centres unmarked) [Compound 47] | < 4.00
O=C(Nc1cccc(C(F)(F)F)c1)c1c(O)c(=O)ccn1CC1c2ccccc2COc2ccccc21 (centres unmarked) [Compound 48] | < 4.00
O=C(Nc1ccccc1)c1c(O)c(=O)ccn1CC1c2ccccc2COc2ccccc21 (centres unmarked) [Compound 49] | < 4.00
O=C(NCc1ccccc1)c1c(O)c(=O)ccn1CC1c2ccccc2COc2ccccc21 (centres unmarked) [Compound 51] | < 4.00
CNC(=O)c1c(O)c(=O)ccn1CC1c2ccccc2COc2ccccc21 (centres unmarked) [Compound 52] | < 4.00
CNC(=O)c1c(O)c(=O)ccn1NC1CCCN(Cc2ccccc2)c2ccccc21 (centres unmarked) [Compound 54] | < 4.00
CNC(=O)c1c(O)c(=O)ccn1NC1CCOCc2ccccc21 (centres unmarked) [Compound 56] | < 4.00
CN(Cc1ccccc1)C(=O)c1c(O)c(=O)ccn1CC1c2ccccc2COc2ccccc21 (centres unmarked) [Compound 57] | < 4.00
